Patent publication US7977322B2 (Vertex Pharmaceuticals Incorporated, priority 2004, dated 2011)

Biological target: T1, ΔF508-CFTR (Homo sapiens, UniProt P13569, DEL508-508)
T1 construct: expressed in transfected cells
Experiment: Membrane potential optical (FRET/VIPR) assay, identification of correction compounds
Type: cell-based
Settings: Table 3, assay not given; for Emax: read-out: % Activity / % Efficacy (relative efficacy)
In short: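 NIH3T3 mouse fibroblasts stably expressing ΔF508-CFTR were exposed to compound for 16 h at 37° C in serum-free medium, then loaded with DiSBAC2(3)/CC2-DMPE. After addition of 10 μM forskolin plus 20 μM genistein in Cl⁻-free gluconate bath (pH 7.4), depolarization from Cl⁻ efflux was read by FRET (VIPR II).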

T1 sequence (P13569 with tags, fused parts or gaps DEL508-508): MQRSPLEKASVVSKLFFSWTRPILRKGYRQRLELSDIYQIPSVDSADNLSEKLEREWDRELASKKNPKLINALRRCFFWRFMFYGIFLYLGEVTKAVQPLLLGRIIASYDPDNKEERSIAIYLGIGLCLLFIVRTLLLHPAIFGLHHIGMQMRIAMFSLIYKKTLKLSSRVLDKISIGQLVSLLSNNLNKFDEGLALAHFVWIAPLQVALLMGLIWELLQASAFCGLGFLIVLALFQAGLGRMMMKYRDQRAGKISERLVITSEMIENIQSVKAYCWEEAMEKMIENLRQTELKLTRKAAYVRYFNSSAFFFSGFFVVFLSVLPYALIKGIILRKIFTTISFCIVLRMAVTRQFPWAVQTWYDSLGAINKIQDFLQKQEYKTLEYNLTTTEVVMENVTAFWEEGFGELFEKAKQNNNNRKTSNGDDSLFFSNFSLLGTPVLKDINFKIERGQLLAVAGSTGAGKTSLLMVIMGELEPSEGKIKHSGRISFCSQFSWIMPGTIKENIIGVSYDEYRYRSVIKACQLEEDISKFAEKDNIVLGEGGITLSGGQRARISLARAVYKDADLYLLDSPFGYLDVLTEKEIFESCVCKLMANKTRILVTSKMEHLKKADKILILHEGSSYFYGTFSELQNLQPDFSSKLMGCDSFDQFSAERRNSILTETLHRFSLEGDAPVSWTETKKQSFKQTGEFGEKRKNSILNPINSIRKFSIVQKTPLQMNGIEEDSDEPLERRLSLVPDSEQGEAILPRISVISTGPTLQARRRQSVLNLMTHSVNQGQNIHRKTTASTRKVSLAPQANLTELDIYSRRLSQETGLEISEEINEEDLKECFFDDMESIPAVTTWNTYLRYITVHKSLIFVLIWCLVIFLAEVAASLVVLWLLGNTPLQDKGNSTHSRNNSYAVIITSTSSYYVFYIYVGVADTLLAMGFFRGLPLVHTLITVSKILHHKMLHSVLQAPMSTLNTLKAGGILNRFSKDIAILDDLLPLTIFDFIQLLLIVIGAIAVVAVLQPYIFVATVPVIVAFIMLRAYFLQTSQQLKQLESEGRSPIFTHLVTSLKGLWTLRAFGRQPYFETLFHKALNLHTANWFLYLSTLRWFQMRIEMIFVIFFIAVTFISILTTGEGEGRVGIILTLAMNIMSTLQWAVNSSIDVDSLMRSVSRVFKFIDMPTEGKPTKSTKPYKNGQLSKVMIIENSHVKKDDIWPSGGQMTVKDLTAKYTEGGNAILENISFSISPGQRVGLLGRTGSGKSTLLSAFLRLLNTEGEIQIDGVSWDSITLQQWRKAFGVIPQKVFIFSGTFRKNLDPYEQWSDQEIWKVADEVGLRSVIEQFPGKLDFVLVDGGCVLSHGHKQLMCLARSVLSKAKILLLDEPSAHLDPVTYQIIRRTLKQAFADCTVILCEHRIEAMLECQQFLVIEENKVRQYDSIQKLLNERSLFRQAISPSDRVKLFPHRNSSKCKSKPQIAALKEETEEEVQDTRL

COc1ccccc1-c1csc(NC(=O)C2(c3ccc4c(c3)OCO4)CC2)n1 [Example 112]
% Activity / % Efficacy (relative efficacy): + (“+” means<25%)
EC50: 10 to 25 µM

O=C(Nc1ncc(C(Cc2ccccc2Cl)N2CCCCC2)s1)C1(c2ccc3c(c2)OCO3)CC1 (centres unmarked) [Example 454]
EC50: < 10 µM
Emax: > 100%

Cc1ccccc1C(N[C@@H](CO)C(C)C)c1cnc(NC(=O)C2(c3ccc4c(c3)OCO4)CC2)s1 (some centres unmarked) [Example 479]
EC50: < 10 µM
Emax: > 100%

CCC(c1ccccc1)c1nnc(NC(=O)C2(c3ccc4c(c3)OCO4)CC2)s1 (centres unmarked) [Example 301]
EC50: < 10 µM
Emax: > 100%

O=C(Nc1ncc(Sc2cccc(Cl)c2)s1)C1(c2ccc3c(c2)OCO3)CC1 [Example 102]
EC50: < 10 µM
Emax: > 100%

COCC1CCCN1C(c1cnc(NC(=O)C2(c3ccc4c(c3)OCO4)CC2)s1)C(C)(C)C (centres unmarked) [Example 389]
EC50: 10 to 25 µM
Emax: > 100%

CC(C)[C@H](CO)NC(c1cnc(NC(=O)C2(c3ccc4c(c3)OCO4)CC2)s1)c1cc(F)ccc1F (some centres unmarked) [Example 484]
EC50: < 10 µM
Emax: > 100%

O=C(Nc1ncc(C(c2ccccc2Cl)N2CC[C@@H](O)C2)s1)C1(c2cccc(Cl)c2)CC1 (some centres unmarked) [Example 446]
EC50: < 10 µM
Emax: > 100%

COCC1CCCN1C(c1cnc(NC(=O)C2(c3ccc4c(c3)OCO4)CC2)s1)c1ccccc1OC (centres unmarked) [Example 358]
EC50: 10 to 25 µM
Emax: > 100%

O=C(O)c1cccc(Sc2cnc(NC(=O)C3(c4ccc5c(c4)OCO5)CC3)s2)c1 [Example 106]
% Activity / % Efficacy (relative efficacy): +++ (“+++” means>100%)
EC50: < 10 µM

COc1ccc(C2(C(=O)Nc3nc(-c4ccc(Cl)c(Cl)c4)cs3)CC2)cc1 [Example 124]
% Activity / % Efficacy (relative efficacy): ++ (“++” means between 25% to 100%)
EC50: 25 to 60 µM

CC(C)C[C@H](CO)NC(c1cnc(NC(=O)C2(c3ccc4c(c3)OCO4)CC2)s1)c1cccc2c1OC(F)(F)O2 (some centres unmarked) [Example 498]
EC50: < 10 µM

NC(c1cnc(NC(=O)C2(c3ccc4c(c3)OCO4)CC2)s1)c1ccccc1Cl (centres unmarked) [Example 475]
EC50: < 10 µM
Emax: 25 to 100%

CC(C)[C@H](CO)NC(c1cnc(NC(=O)C2(c3ccc4c(c3)OCO4)CC2)s1)c1ccccc1F (some centres unmarked) [Example 483]
EC50: < 10 µM
Emax: > 100%

CC(C)[C@H](CO)NC(c1ccc2c(c1)OC(F)(F)O2)c1cnc(NC(=O)C2(c3ccc4c(c3)OCO4)CC2)s1 (some centres unmarked) [Example 493]
EC50: < 10 µM
Emax: > 100%

CCN(CC)CCn1cc(Cc2ccccc2Cl)s/c1=N/C(=O)C1(c2ccc(OC)cc2)CC1 [Example 73]
EC50: 25 to 60 µM
Emax: < 25%

COC[C@@H]1CCCN1C(c1cccc(OC)c1)c1cnc(NC(=O)C2(c3ccc4c(c3)OCO4)CC2)s1 (some centres unmarked) [Example 345]
EC50: < 10 µM
Emax: 25 to 100%

COc1ccccc1CCc1cnc(NC(=O)C2(c3ccc4c(c3)OCO4)CC2)s1 [Example 197]
% Activity / % Efficacy (relative efficacy): +++ (“+++” means>100%)
EC50: < 10 µM

COc1cccnc1Cc1cnc(NC(=O)C2(c3ccc4c(c3)OCO4)CC2)s1 [Example 266]
% Activity / % Efficacy (relative efficacy): +++ (“+++” means>100%)
EC50: < 10 µM

COc1ccc(C2(C(=O)Nc3ncc(Cc4ccccc4OC)s3)CCOCC2)cc1 [Example 57]
% Activity / % Efficacy (relative efficacy): +++ (“+++” means>100%)
EC50: < 10 µM

O=C(Nc1ncc(C(Cc2ccccc2Cl)N2CCC(O)CC2)s1)C1(c2ccc3c(c2)OCO3)CC1 (centres unmarked) [Example 460]
EC50: < 10 µM
Emax: > 100%

CC(C)(C)C(c1cnc(NC(=O)C2(c3ccc4c(c3)OCO4)CC2)s1)N1CCCC1 (centres unmarked) [Example 391]
EC50: 10 to 25 µM
Emax: > 100%

O=C(Nc1ncc(Oc2ccccc2Cl)s1)C1(c2ccc3c(c2)OCO3)CC1 [Example 93]
% Activity / % Efficacy (relative efficacy): +++ (“+++” means>100%)
EC50: < 10 µM

Cc1ccccc1C(c1cnc(NC(=O)C2(c3ccc4c(c3)OCO4)CC2)s1)N1CC[C@@H](O)C1 (some centres unmarked) [Example 466]
EC50: 10 to 25 µM
Emax: > 100%

COc1ccc(C2(C(=O)Nc3ncc(Cc4ccc(F)cc4F)s3)CC2)cc1 [Example 264]
% Activity / % Efficacy (relative efficacy): +++ (“+++” means>100%)
EC50: < 10 µM

CC(C)(C)CCNC(c1cnc(NC(=O)C2(c3ccc4c(c3)OCO4)CC2)s1)c1ccccc1Cl (centres unmarked) [Example 428]
EC50: < 10 µM
Emax: > 100%

COc1ccc(C2(C(=O)Nc3ncc(Sc4cccc(C(=O)O)c4)s3)CC2)cc1 [Example 97]
% Activity / % Efficacy (relative efficacy): +++ (“+++” means>100%)
EC50: < 10 µM

CN(C)C(Cc1ccccc1Cl)c1cnc(NC(=O)C2(c3ccc4c(c3)OCO4)CC2)s1 (centres unmarked) [Example 457]
EC50: < 10 µM
Emax: > 100%

O=C(Nc1ncc(Cc2ccccc2Cl)s1)C1(c2ccc3c(c2)OCO3)CC1 [Example 56]
% Activity / % Efficacy (relative efficacy): ++ (“++” means between 25% to 100%)
EC50: < 10 µM

CS(=O)(=O)c1ccc(C(c2cnc(NC(=O)C3(c4ccc5c(c4)OCO5)CC3)s2)N2CCC[C@H]2C(N)=O)cc1 (some centres unmarked) [Example 377]
EC50: 10 to 25 µM
Emax: 25 to 100%
